From US6875757B2, “LPA receptor agonists and antagonists and methods of use” (University of Tennessee Research Foundation, priority 2000, dated 2005)
Like-named read-outs stand apart in the source and are kept apart here. Blank lines part the entries; values can stand above or below the compound they belong to.

Key:
Assay type in all cases: cell-based
[1] = target: T1, human Edg-2 (Homo sapiens, UniProt Q92633); assay: Ca2+ responses (Fura-2) in RH7777 cells expressing Edg-2; details: 250 nM LPA 18:1 mixed with 10 μM lipid
T1 construct: expressed in transfected cells
T1 sequence (Q92633 whole entry): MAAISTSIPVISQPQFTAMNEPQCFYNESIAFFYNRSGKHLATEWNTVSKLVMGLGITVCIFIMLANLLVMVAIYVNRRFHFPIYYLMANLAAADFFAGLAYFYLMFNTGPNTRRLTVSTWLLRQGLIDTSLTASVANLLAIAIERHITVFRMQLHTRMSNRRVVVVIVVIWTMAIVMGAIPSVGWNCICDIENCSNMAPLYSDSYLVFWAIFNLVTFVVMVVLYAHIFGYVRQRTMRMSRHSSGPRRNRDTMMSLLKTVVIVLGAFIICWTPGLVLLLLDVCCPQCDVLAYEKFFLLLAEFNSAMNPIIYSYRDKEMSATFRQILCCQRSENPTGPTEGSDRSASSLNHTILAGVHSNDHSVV
Description: (§1) RH7777 cells were transfected with the cDNA constructs encoding human Edg-2, Edg-4, or Edg-7 and then were subcloned into the pCDNA3 expression vector using the Cytofectene transfection reagent according to the manufacturers' protocol. Transfected cells were selected in DMEM containing 10% FBS and 1 mg/ml geneticin. Resistant cells were collected and subcloned by limiting dilution. The resulting clones were then screened using functional assays and RT-PCR analysis. Data are representative of three individual clones.

[2] = target: T2, human Edg-7 (Homo sapiens, UniProt Q9UBY5); assay: Ca2+ responses (Fura-2) in RH7777 cells expressing Edg-7; details: 250 nM LPA 18:1 mixed with 500 nM lipid
T2 construct: Flag; expressed in transfected cells
T2 sequence (Q9UBY5 1-353): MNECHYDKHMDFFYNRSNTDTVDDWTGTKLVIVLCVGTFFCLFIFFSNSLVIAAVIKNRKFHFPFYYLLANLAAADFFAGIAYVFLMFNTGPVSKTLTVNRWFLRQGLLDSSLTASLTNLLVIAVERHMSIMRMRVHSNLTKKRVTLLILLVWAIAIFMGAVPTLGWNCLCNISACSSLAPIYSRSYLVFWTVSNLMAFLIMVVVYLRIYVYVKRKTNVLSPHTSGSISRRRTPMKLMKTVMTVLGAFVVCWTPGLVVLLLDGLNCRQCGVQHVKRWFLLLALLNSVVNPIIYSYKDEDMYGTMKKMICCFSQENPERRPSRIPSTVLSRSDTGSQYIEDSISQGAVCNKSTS
Description: as §1

[3] = test system: NIH3T3 cells; assay: LPA-elicited proliferation of NIH3T3 cells (cell counting); details: 5 μM LPA 18:1 mixed with 10 μM lipid, 24 hr
Description: Proliferation of NIH3T3 cells was assessed by direct cell counting as previously described (Tigyi et al., 1999). NIH3T3 cells were plated in 24-well plates at a density of 10,000 cells/well, in DMEM containing 10% FBS. The following day, the cells were rinsed and serum starved in DMEM for 6 hr. Lipids were then added for 24 hr. Cell numbers were determined by counting in a Coulter counter (Coulter Electronics, Hialeah, Fla.).

[4] = test system: HEY ovarian cancer cells; assay: Ca2+ responses in HEY ovarian cancer cells; details: 100 nM LPA 18:1 mixed with 1 μM lipid
Source text: Likewise, PA 8:0 inhibited the Ca^2+ response to 6% of control, whereas PA 18:1 had no effect. HEY express mRNA transcripts for Edg-1, -2, -5, -7 receptors (FIG. 34C).

[5] = test system: HEY ovarian cancer cells; assay: LPA-induced HEY ovarian cancer cell migration (cell motility); details: compound 1 μM against 0.1 μM LPA
Description: It is known that two LPA receptors, EDG-2 and EDG-7, are expressed in HEY ovarian cancer cells, so compounds 56, 56a, and 66 were evaluated for their ablity to inhibit LPA-induced cell motility (compound conc: 1 μM against 0.1 μM LPA conc:).
HEY ovarian cells were maintained in RPMI 1640 medium with 2 mM L-glutamine (GIBCO BRL) supplemented with 10% fetal bovine serum (FBS, Hyclone). All cells were synchronized to the Go/G1 stage by growing them to confluency for 2 days. The cells were replated and harvested for experiments when cells were about 50-60% confluent on the flask. After removal of the cells from the flask, they were exposed for 5 min to 0.53 mM EDTA in PBS at 37° C. EDTA was neutralized with equal volume of RPMI 1640 plus 2 mM L-glutamine and 10% FBS. Cells were centrifuged at 800 rpm for 10 min at room temperature. Harvested cells were washed twice with RPMI 1640 with 2 mM L-glutamine medium and resuspended in the concentration of 1×10^6 cells/ml, and then rested for 1 hr at 37° C.
A modified quantitative cell migration assay (Cat. # ECM500 from Chemicon, Temecula, Calif.) was used to test cell motility. The Chemicon chamber membrane was coated with fibronectin-containing pores of 8 microns in diameter. A 400 μl RPMI/2 mM L-glutamine containing either no inhibitors or inhibitors (1 μM) were pippetted into the lower chamber. About 5×10^4 cells in RPMI 1640/2 mM L-glutamine were added to the top chamber. The 24-well plates with inserts were incubated for 4 hours in a 5% CO2 incubator at 37° C. At the end of incubation, the chambers were removed to a fresh 24-well plate, and the cells on the inside chamber were removed by a swab several times and placed in the prepared Cell Stain Solution for 30 minutes at room temperature. At the end of incubation, Cell Stain Solution was removed from the wells. The chambers were washed 3 times with 1 mL PBS per well. After the final PBS wash, the chambers were examined to confirm proper cell morphology, and adherent cells were counted using an inverted microscope.

[6] = test system: LNCaP prostate cancer cell line; assay: Cytotoxicity / growth inhibition (SRB), LNCaP; details: 96 hours drug exposure, read-out: IC50 ± SEM, LNCaP
Description: (§2) Cells were removed from stock flasks using trypsin, centrifuged, resuspended in fresh media, and plated at a density of approximately 2,000 cells/well in 96-well culture plates. Final drug concentrations ranged from 0.05 to either 10 or 50 μM. Control experiments with no drug added (negative control) and 5-fluorouracil added (positive control) were performed in parallel. Media was removed and replaced at 48 hours to minimize the effects of drug degradation during the course of the experiment. After 96 hours drug exposure, cells were fixed by the addition of cold 50% trichloroacetic acid (TCA) and incubation at 4° C. for 1 hour. Fixed cells were stained with sulforhodamine B (SRB), and cell number was determined by comparison of absorbance at 540 nm, as compared to a standard curve of cell number versus absorbance. Experiments were performed in duplicate.

[7] = target: PSP24 PLGFR (Xenopus laevis, UniProt P79945); assay: Xenopus oocyte assay: LPA-induced oscillatory chloride currents (two-electrode voltage clamp); details: for inhibition of LPA-induced chloride currents: Xenopus oocytes, extracellular application
PSP24 PLGFR, sequence (P79945 whole entry): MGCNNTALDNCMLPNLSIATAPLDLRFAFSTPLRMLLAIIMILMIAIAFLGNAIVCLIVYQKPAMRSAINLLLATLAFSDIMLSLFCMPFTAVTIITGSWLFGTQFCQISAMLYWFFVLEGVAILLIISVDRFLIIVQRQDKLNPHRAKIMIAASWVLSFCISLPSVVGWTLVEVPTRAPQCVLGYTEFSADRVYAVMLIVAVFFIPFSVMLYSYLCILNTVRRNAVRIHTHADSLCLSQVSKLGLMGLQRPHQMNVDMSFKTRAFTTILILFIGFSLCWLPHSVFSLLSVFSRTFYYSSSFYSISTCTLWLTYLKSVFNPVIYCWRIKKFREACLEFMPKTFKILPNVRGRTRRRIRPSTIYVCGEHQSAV
Description: Xenopus oocytes which endogenously express PSP24 PLGFR were used to screen the newly designed and synthesized compounds for their LPA inhibitory activity.
(§3) Oocytes were obtained from xylazine-anesthetized adult Xenopus laevis frogs (Carolina Scientific, Burlington, N.C.) under aseptic conditions and prepared for experiment. […] Oocytes were kept in Barth's solution in an incubator between 17-20° C. and were used for 2-7 days after isolation.
(§4) Electrophysiological recordings were carried out using a standard two-electrode voltage-clamp amplifier holding the membrane potential at −60 mV (GeneClamp 500, Axon Instruments, Calif.). […] Membrane currents were recorded with a NIC-310 digital oscilloscope (Nicolet, Madison, Wis.). Applications were made at intervals of 15 mins (minimum) to allow for the appropriate washout and recovery from desensitization.
as §3
as §4, with “CA).” for “Calif.).”

[8] = test system: PC-3 prostate cancer cell line; assay: Cytotoxicity / growth inhibition (SRB), PC-3; details: 96 hours drug exposure, read-out: IC50 ± SEM, PC-3
Description: as §2

[9] = test system: DU-145 prostate cancer cell line; assay: Cytotoxicity / growth inhibition (SRB), DU145; details: read-out: IC50 ± SEM, DU145
Description: as §2

[10] = target: T3, human Edg-4 (Homo sapiens, UniProt Q9HBW0); assay: Ca2+ responses (Fura-2) in RH7777 cells expressing Edg-4 (stable or transient); details: stable Edg-4; 500 nM LPA 18:1 mixed with 5 μM lipid
T3 construct: expressed in transfected cells
T3 sequence (Q9HBW0 whole entry): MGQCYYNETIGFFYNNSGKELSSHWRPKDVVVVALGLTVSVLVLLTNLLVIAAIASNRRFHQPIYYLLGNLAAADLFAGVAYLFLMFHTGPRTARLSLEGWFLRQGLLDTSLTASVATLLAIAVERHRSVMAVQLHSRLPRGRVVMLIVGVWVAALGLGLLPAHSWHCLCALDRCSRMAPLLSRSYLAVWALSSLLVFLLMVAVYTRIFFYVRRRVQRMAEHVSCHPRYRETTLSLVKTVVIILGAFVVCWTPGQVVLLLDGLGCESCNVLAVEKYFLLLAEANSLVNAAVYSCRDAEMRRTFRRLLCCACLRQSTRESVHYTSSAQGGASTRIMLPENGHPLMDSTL
Source text: RH7777 cells, stably expressing human Edg-4, were kindly provided by Dr. Kevin Lynch (University of Virginia, Charlottesville, Va.). Flag-tagged cDNA's encoding human Edg-4 and -7 inserted into the pCDNA3 expression plasmid (Invitrogen, Carlsbad, Calif.), were a generous gift from Dr. Junken Aoki (University of Tokyo, Tokyo, Japan). RH7777 and NIH3T3 cells were obtained from the American Type Culture Collection (Manassas, Va.). HEY cells were provided by Dr. Lisa Jennings (University of Tennessee, Memphis). All cell lines were maintained in Dulbecco's Modified Eagle's Medium (DMEM) containing 10% FBS and 2 mM glutamine. Oocytes were obtained from adult Xenopus laevis frogs as previously described (Tigyi et al., 1999).
as §1
RH7777 cells were plated on polylysine-coated glass coverslips (Bellco, Vineland, N.J.) one day prior to transfection. The following day, cells were transfected overnight (16-18 hr) with 1 μg of plasmid DNA mixed with 6 μl of Cytofectene. The cells were then rinsed twice with DMEM and cultured in DMEM containing 10% FBS. The next day, the cells were rinsed with DMEM and serum was withdrawn for a minimum of 2 hr prior to monitoring intracellular Ca^2+.

Compound: 2-Amino-3-(nonylamino)-3-oxopropyl dihydrogen phosphate [Compound 55]
- effect on LPA-induced cell motility [5]: potentiated the LPA-induced cell motility
- IC50 [6]: 4.9 ± 2.6 µM
- inhibition of LPA-induced response ([7]; compound at 1 μM against 2 nM LPA): 38%
- IC50 [8]: 31.6 ± 9 µM
- IC50 ([9]; 96 hours drug exposure): 24.9 ± 4.1 µM

Compound: CCCCCCCCCCCCCCNC(=O)C(COP(=O)(O)O)NC(C)=O (centres unmarked) [Compound 56a, 2-(Acetylamino)-3-oxo-3-(tetradecylamino) propyl dihydrogen phosphate]
- effect on LPA-induced cell motility [5]: potentiated the LPA-induced cell motility
- IC50 [6]: 30.3 ± 7.9 µM
- effect on LPA response when applied in combination with LPA ([7]; applied in combination with LPA): enhanced the LPA response
- response elicited by compound alone at 2 μM ([7]; compound alone, 2 μM): did not elicit a response
- response elicited by compound alone at 10 μM ([7]; compound alone, 10 μM): able to elicit a response on its own
- IC50 ([9]; 96 hours drug exposure): 0.7 ± 0.1 µM

Compound: CCCCCCCCCCCCCCCCCCOCC(COP(=O)(O)O)OP(=O)(O)O (centres unmarked) [Compound 66, 1,2-(3-Octadecyloxypropane)-bis(dihydrogen phosphate)]
- inhibition at 1 µM [5]: ~70%
- IC50 ([6]; Homo sapiens, LNCaP): 3.1 ± 3.2 µM
- effect on LPA response after intracellular microinjection ([7]; 5 μM microinjected inside the cell, then extracellular LPA (10 nM)): failed to inhibit the LPA response
- inhibition of LPA-induced chloride currents [7]: inhibitors of LPA-induced chloride current
- reversibility of inhibition of LPA-induced chloride currents ([7]; after washing the oocyte): reversible
- effect on the LPA response at 5 μM ([7]; compound at 5 μM): completely abolished the effect of LPA
- IC50 [8]: > 10 µM
- IC50 ([9]; Homo sapiens, DU-145, 96 hours drug exposure): > 10 µM

Second part, led by results:

- inhibitory effect on LPA-elicited Ca2+ response [1]: no longer had an inhibitory effect
- effect on LPA-elicited Ca2+ responses [2]: no longer inhibitors of Edg-7
Compound: CCCCCCCC(=O)OC[C@H](COP(=O)(O)OP(=O)(O)O)OC(=O)CCCCCCC [DGPP 18:1, diacylglycerol pyrophosphate]
- effect on LPA-induced proliferation [3]: Neither DGPP 18:1, nor long- and short-chain PA and DAG had an effect
- effect on LPA-elicited Ca2+ response [4]: had no effect

- Ca2+ response, % of control [1]: 19 % of control
- inhibition of the Ca2+ responses [2]: 56%
- Ca2+ responses, % of control [10]: 162 % of control
Compound: Phosphatidic acid [PA 8:0]
- inhibition of LPA-induced chloride currents [7]: effective at inhibiting the LPA-elicited responses
- effect on LPA-induced proliferation [3]: had no significant inhibition
- LPA-elicited Ca2+ response, % of control [4]: 6 % of control
